Assay results taken from patent US7041819B2, “Halogenated calixpyrroles and uses thereof” (Board of Regents, The University of Texas System, priority 1996, dated 2006).

Experiments:
[1] = 1H NMR titration in CD2Cl2; format: binding; conditions: tetrabutylammonium salt 0.1M added to 10 mM receptor
[2] = 1H NMR titration in CD2Cl2; format: binding; conditions: tetrabutylammonium salt 0.1M added to 10 mM receptor; remark: listed apart in the source
[3] = 1H NMR titration in CD2Cl2; format: binding; conditions: for Stability Constant, Dihydrogen phosphate: tetrabutylammonium salt 0.1M added to 10 mM receptor; for Stability Constant, Dibiphosphate: tetrabutylammonium salt 0.03 M added to 3 mM receptor; for Stability Constants, Dihydrogen phosphate: Table 4, 0.1 M salt added to 10 mM receptor, value of 28 estimated
[4] = 1H NMR titration in CD2Cl2; format: binding; conditions: for Stability Constants, Hydrogen sulfate: Table 4, 0.1 M salt added to 10 mM receptor
[5] = NMR titration with neutral substrates in benzene-d6; format: binding; conditions: benzene-d6 at 298 K; 1 at ca. 4 × 10^−3 M
Source text: Substrate Binding in Solution. The binding of neutral molecules to calix[4]pyrrole in the solid state prompted the present inventors to quantify the binding affinities of calix[4]pyrrole to a number of hydrogenbinding neutral molecules. Table 6 illustrates the varying degrees of affinity to which calix[4]pyrrole binds to various hydrogen binding compounds.

[6] = 1H NMR titration in CD2Cl2; conditions: for Stability Constant, Fluoride: CD2Cl2
[7] = 1H NMR titration in CD2Cl2; conditions: for Stability Constant, Chloride / Stability Constants, Chloride: CD2Cl2; for Stability Constants, Chloride: Table 4, tetrabutylammonium salt 0.1 M added to 10 mM receptor
[8] = Anion binding affinity compared with parent calix[4]pyrrole; conditions: 13 and 29 vs compound 2; 14 and 28 vs compound 1
Source text: These types of compounds are useful as HPLC column media since low affinity constants and fast complexation-decomplexation rates generally lead to efficient separation of substrates (see Example 10).
Receptors with an increased anion binding ability such as 14 are useful as anion sequestering agents (e.g., in removal of phosphate and nitrate pollutants from aqueous environments) (see Example 12) or as synthons in reactions to produce further modified calix[4]pyrroles. The present inventors envision this system will be useful as a precursor to a calix[m]pyridino[n]pyrrole or a calix[m]pyridine.
The attachment of electron-donating substituents (such as methoxy) to the β-position (carbon or C-rim of the calixpyrrole) decreases the stability constants of compound 13 relative to compound 2. However attachment of electron-withdrawing substituents (such as bromine) to the carbon-rim has increased the stability constants of compound 14 relative to compound 1.
This increased binding affinity towards anions was not observed for the Substituted amide substituted mesooctamethylcalix[4]pyrrole 28 when compared to the compound 1. A possible reason is that the carboxy ‘tail” is not long enough to swing around and contribute to the binding of the anion.

[9] = 1H and 19F NMR titration in acetonitrile-d3 (0.5% v/v D2O); format: binding; conditions: wet acetonitrile
Source text: ^1H and ^19F NMR Titrations. The receptor 44, as a 0.014 M acetonitrile-d3 (0.5% v/v D2O) solution, was titrated by addition of concentrated acetonitrile-d3 (0.5% v/v D2O) solutions of the anions in question (in the form of their tetrabutylammonium salts). In order to account for dilution effects, these anion solutions also contained receptor 44 at its initial concentration. The data were fit to a 1:1 binding profile according to the method of Wilcox (in Frontiers in Supramolecular Organic Chemistry and Photochemistry; Schneider, H.-J., Dürr, H., Eds.; VCH: Weinheim, 1991) using changes in both the NH and β-F pyrrolic resonances in the ^1H and ^19F NMR spectra, respectively, that were assigned to the portion of the total receptor concentration that was considered to be monomeric. Specifically, the change in the position of the peaks initially at 7.24 ppm (^1H NMR) and −177.03 ppm (^19F NMR) were followed. Integration of the two pyrrolic NH resonances (corresponding to calix[4]pyrroles that are “free” and bound to the next receptor molecule) made it possible to estimate the relative concentration of the monomeric fraction in the acetonitrile-d3 (0.5% v/v D2O) solutions being subject to analysis. This estimated monomeric receptor concentration was used to calculate the affinity constants. […] Estimated errors were <20%.
The presence of two different receptor forms in solution precluded the use of Job plots to analyze binding stoichiometries. […] This increased selectivity is summarized in terms of the ratio of the binding constants, R44/43. (Table 9). Separate from the issue of binding to the monomeric form, but complicating the analyses somewhat was the finding that the addition of phosphate and fluoride to wet acetonitrile solutions of 44 led to deaggregation.
^1H and ^19F NMR spectroscopic titrations. Receptor 46, as a 0.014 M acetonitrile-d3 (0.5% v/v D2O) solution, was titrated by addition of concentrated acetonitrile-d3 (0.5% v/v D2O) solutions of the anions in question (in the form of their tetrabutylammonium salts). In order to account for dilution effects, these anion solutions also contained receptor 46 at its initial concentration. The data were fit to a 1:1 binding profile according to the method of Wilcox (Wilcox, C. S. in Frontiers in Supramolecular Organic Chemistry and Photochemistry; Schneider, H.-J., Dürr, H., Eds.; VCH: Weinheim, 1991) using changes in both the NH and β-F pyrrolic resonances in the ^1H and ^19F NMR spectra, respectively.
The binding properties of 46 and 48 were studied.

[10] = Binding constant in wet acetonitrile
Description: Binding constants vary with the solvent used for the binding study. Note that the solvent used for the data of Table 2 of Example 10 was dichloromethane whereas the solvent used for the studies herein was acetonitrile. In addition, a binding constant of 12,300 M^−1 was determined for the binding of pyrophosphate to 44 in wet acetonitrile.

[11] = Stability under acidic conditions; format: physicochemical; conditions: for stability under conditions of acid catalysis at higher temperature: 64° C., within 24 h; for stability under conditions of acid catalysis identical to those of preparation: purified samples, 24 hours, ambient temperature
Description: An advantage of 44 is that in contrast to its simple all-hydrogen analogue 43 it is stable upon exposure to acidic aqueous environments (down to pH 3 or 4 for >24 hours). This makes this system particularly useful for anion recognition, binding, sensing, transport, and extraction applications described in Examples 4, 8, 10, 11, 12, and 15.
A further advantage of the calix[n]pyrroles is that they are stable at a wide range of temperatures, especially at neutral or basic conditions. Under acidic conditions and extreme high or low temperatures, the meso linkage may degrade. A particular attribute of the fluorinated calix[n]pyrroles 44, 46, and 48 is that they are very stable under acidic conditions.
This latter finding is consistent with compounds 46 and 48 being kinetically stable at ambient temperature but not at higher temperatures.

[12] = acetonitrile-d3 (0.5% v/v D2O) at 22° C.; Anzenbacher et al. 1999; cited from earlier work
[13] = acetonitrile-d3 (0.5% v/v D2O) at 22° C.; Anzenbacher et al. 1999; cited from earlier work; remark: listed apart in the source
[14] = acetonitrile-d3 (0.5% v/v D2O) at 22° C.; Anzenbacher et al. 1999; cited from earlier work; remark: listed apart in the source
[15] = acetonitrile-d3 (0.5% v/v D2O) at 22° C.; Anzenbacher et al. 1999; cited from earlier work; remark: listed apart in the source
[16] = tetrabutylammonium salt 0.1M added to 10 mM receptor
[17] = tetrabutylammonium fluoride trihydrate 0.1M added to 10 mM receptor
[18] = tetrabutylammonium salt 0.03 M added to 3 mM receptor, value of 14 estimated
[19] = tetrabutylammonium salt 0.03 M added to 3 mM receptor

CC1(C)c2ccc([nH]2)C(C)(C)c2ccc([nH]2)C(C)(C)c2ccc([nH]2)C(C)(C)c2ccc1[nH]2 [Compound 1, meso-octamethylcalix[4]pyrrole]
Stability Constant, Bromide [1]: 10 (±0.5) M^−1 | Stability Constant, Iodide [2]: <10 M⁻¹ | Stability Constant, Dihydrogen phosphate [3]: 97 (±3.9) M^−1 | Stability Constant, Hydrogen sulfate [4, 16]: <10 M⁻¹ | Ka, 1,1,3,3tetramethylurea [5]: 2.2 ± 0.1 M^1 | Ka, 1,2dimethylimidazole [5]: 5.4 ± 0.3 M^1 | Ka, N,N-dimethylacetamide [5]: 9.0 ± 0.9 M^1 | Ka, N,N-dimethylformamide [5]: 11.3 ± 0.8 M^1 | Ka, N-formylglycine ethyl ester [5]: 13.3 ± 1.0 M^1 | Ka, acetone [5]: 2.2 ± 0.2 M^1 | Ka, benzyl alcohol [5]: 9.7 ± 0.7 M^1 | Ka, dimethyl sulfoxide [5]: 16.2 ± 1.1 M^1 | Ka, ethanol [5]: 10.7 ± 0.7 M^1 | Ka, isopropyl alcohol [5]: 7.0 ± 0.4 M^1 | Ka, methanol [5]: 12.7 ± 1.0 M^1 | Ka, secbutanol [5]: 6.2 ± 0.4 M^1 | Stability Constant, Fluoride [6, 17]: 17170 (±900) M^−1 | Stability Constant, Chloride [7, 16]: 350 (±5.5) M^−1

c1cc2[nH]c1C1(CCCCC1)c1ccc([nH]1)C1(CCCCC1)c1ccc([nH]1)C1(CCCCC1)c1ccc([nH]1)C21CCCCC1 [Compound 2, meso-Tetraspirocyclohexylcalix[4]pyrrole, reference compound]
Stability Constant, Dihydrogen phosphate [3]: <10 M⁻¹ | Stability Constant, Fluoride [6, 17]: 3600 (±395) M^−1 | Stability Constant, Chloride [7, 16]: 117 (±4.0) M^−1

COc1c2[nH]c(c1OC)C1(CCCCC1)c1[nH]c(c(OC)c1OC)C1(CCCCC1)c1[nH]c(c(OC)c1OC)C1(CCCCC1)c1[nH]c(c(OC)c1OC)C21CCCCC1 [Compound 13, β-Octamethoxy-meso-tetraspirocyclohexylcalix[4]pyrrole]
Stability Constant, Dibiphosphate [3]: 6.5 (±0.4) × 10^2 M^−1 | anion binding affinity relative to parent calix[4]pyrrole [8]: decreased | Stability Constant, Fluoride [6, 18]: 1.7 (±0.2) × 10^2 M^−1 | Stability Constant, Chloride [7, 19]: <10 M⁻¹

CC1(C)c2[nH]c(c(Br)c2Br)C(C)(C)c2[nH]c(c(Br)c2Br)C(C)(C)c2[nH]c(c(Br)c2Br)C(C)(C)c2[nH]c1c(Br)c2Br [Compound 14, β-Octabromo-meso-octamethylcalix[4]pyrrole]
Stability Constant, Dibiphosphate [3]: <10 M⁻¹ | anion binding affinity relative to parent calix[4]pyrrole [8]: increased | Stability Constant, Fluoride [6, 18]: 2.7 (±0.4) × 10^4b M^−1 | Stability Constant, Chloride [7, 19]: 4.3 (±0.6) × 10^3 M^−1

CCCCNC(=O)Cc1cc2[nH]c1C(C)(C)c1ccc([nH]1)C(C)(C)c1ccc([nH]1)C(C)(C)c1ccc([nH]1)C2(C)C [Compound 28, Mono-β-butylamidocalix[4]pyrrole]
Stability Constants, Dihydrogen phosphate [3]: 80 (±15)^b M^−1 | Stability Constants, Hydrogen sulfate [4]: <10 M⁻¹ | anion binding affinity relative to parent calix[4]pyrrole [8]: not observed | Stability Constants, Chloride [7]: 405 (±10) M^−1

CCCCNC(=O)CCCC1(C)c2ccc([nH]2)C2(CCCCC2)c2ccc([nH]2)C2(CCCCC2)c2ccc([nH]2)C2(CCCCC2)c2ccc1[nH]2 (stereo not drawn) [Compound 29, Mono-meso-butylamidocalix[4]pyrrole]
Stability Constants, Dihydrogen phosphate [3]: 62 (±6) M^−1 | Stability Constants, Hydrogen sulfate [4]: <10 M⁻¹ | anion binding affinity relative to parent calix[4]pyrrole [8]: marked increase | Stability Constants, Chloride [7]: 415(±45) M^−1

CC1(C)c2[nH]c(c(F)c2F)C(C)(C)c2[nH]c(c(F)c2F)C(C)(C)c2[nH]c(c(F)c2F)C(C)(C)c2[nH]c1c(F)c2F [Compound 44, Meso-Octamethyl-β-octafluorocalix[4]pyrrole]
Stability Constant, Chloride [9]: 10700 M⁻¹ | Stability Constant, Pyrophosphate [10]: 12300 M⁻¹ | stability under acidic conditions [11]: very stable

CC1(C)c2[nH]c(c(F)c2F)C(C)(C)c2[nH]c(c(F)c2F)C(C)(C)c2[nH]c(c(F)c2F)C(C)(C)c2[nH]c(c(F)c2F)C(C)(C)c2[nH]c1c(F)c2F [Compound 46, β-Decafluoro-meso-decamethylcalix[5]pyrrole]
Stability Constant, Chloride [9]: 41 000 M^−1 | Stability Constant, DMSO [9]: 29 (±3) M^−1 | Stability Constant, Pyrophosphate [10]: 25 000 M^−1 | stability under acidic conditions [11]: very stable | stability under conditions of acid catalysis at higher temperature [11]: nearly complete conversion to 44 | stability under conditions of acid catalysis identical to those of preparation [11]: remained completely intact

CC1(C)c2[nH]c(c(F)c2F)C(C)(C)c2[nH]c(c(F)c2F)C(C)(C)c2[nH]c(c(F)c2F)C(C)(C)c2[nH]c(c(F)c2F)C(C)(C)c2[nH]c(c(F)c2F)C(C)(C)c2[nH]c(c(F)c2F)C(C)(C)c2[nH]c(c(F)c2F)C(C)(C)c2[nH]c1c(F)c2F [Compound 48, β-hexadecafluoro-meso-hexadecamethylcalix[8]pyrrole]
Stability Constant, Chloride [9]: 3 600 M^−1 | Stability Constant, Pyrophosphate [10]: 28 000 M^−1 | stability under acidic conditions [11]: very stable | stability under conditions of acid catalysis at higher temperature [11]: nearly complete conversion to 44 | stability under conditions of acid catalysis identical to those of preparation [11]: remained completely intact

meso-octamethylcalix[4]pyrrole [Compound 1]
Affinity constant, F^− [12]: >10 000 mol^−1 | Affinity constant, Cl^− [13]: 5 000 mol^−1 | Affinity constant, H2PO4^− [14]: 1 300 mol^−1 | Affinity constant, DMSO-d6 [15]: <5^c mol^−1

meso-tetramethylcalix[4]pyrrole-p-tert-butylcalix[4]arene pseudo dimer [Compound 15]
changes in the NMR spectrum on addition of tetrabutylammonium fluoride ([6]; dichloromethane-d2, 10.0 equiv.): no changes

β-diester-meso-octamethylcalix[4]pyrrole [Compound 11]
interaction with fluoride anion in solution [6]: interact | interaction with chloride anion in solution [7]: interact

β-monoester-meso-octamethylcalix[4]pyrrole [Compound 10]
Stability Constant, Fluoride [6, 18]: 1.1 (±0.2) × 10^3 M^−1 | Stability Constant, Chloride [7, 19]: 47 (±1) M^−1
